{
  "source": "paper PMC4180945",
  "about": "(Tetrahedron, 2014)",
  "key": {"[1]": {"molecular_target": "T1, protein-tyrosine phosphatase 1B (PTP1B) (Homo sapiens, UniProt P18031)", "T1 sequence (P18031 1-435)": "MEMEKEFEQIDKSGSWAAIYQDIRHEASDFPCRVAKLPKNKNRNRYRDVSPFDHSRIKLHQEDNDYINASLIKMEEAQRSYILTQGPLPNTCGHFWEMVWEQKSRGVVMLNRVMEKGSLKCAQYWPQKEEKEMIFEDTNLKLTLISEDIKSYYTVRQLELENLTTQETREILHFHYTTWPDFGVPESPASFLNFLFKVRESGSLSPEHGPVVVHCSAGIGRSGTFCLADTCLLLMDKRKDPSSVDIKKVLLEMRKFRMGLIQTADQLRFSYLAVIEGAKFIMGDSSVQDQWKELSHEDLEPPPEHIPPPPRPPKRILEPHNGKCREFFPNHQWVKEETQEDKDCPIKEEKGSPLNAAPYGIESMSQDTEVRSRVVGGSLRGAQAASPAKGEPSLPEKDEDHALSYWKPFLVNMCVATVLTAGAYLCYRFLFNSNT", "experiment": "Selectivity binding to arbitrarily selected protein: PTP1B"}, "[2]": {"molecular_target": "bovine serum albumin (BSA) (Bos taurus, UniProt P02769)", "sequence (P02769 25-607)": "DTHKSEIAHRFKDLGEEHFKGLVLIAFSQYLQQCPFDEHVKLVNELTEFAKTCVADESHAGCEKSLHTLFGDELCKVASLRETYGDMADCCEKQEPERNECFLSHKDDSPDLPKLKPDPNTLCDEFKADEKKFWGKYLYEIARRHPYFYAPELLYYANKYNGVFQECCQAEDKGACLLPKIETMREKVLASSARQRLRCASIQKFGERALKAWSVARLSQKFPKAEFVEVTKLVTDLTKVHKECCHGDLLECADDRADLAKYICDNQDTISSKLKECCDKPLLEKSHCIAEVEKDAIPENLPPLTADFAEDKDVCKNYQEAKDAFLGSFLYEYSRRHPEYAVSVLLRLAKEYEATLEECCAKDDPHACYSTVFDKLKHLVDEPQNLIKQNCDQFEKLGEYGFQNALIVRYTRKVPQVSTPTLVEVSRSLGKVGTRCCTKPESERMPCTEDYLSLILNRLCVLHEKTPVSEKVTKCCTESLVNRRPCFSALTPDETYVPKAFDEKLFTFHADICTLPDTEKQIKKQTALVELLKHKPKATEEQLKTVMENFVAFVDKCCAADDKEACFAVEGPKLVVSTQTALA", "experiment": "Selectivity binding to arbitrarily selected protein: BSA"}, "[3]": {"molecular_target": "GST-FKBP12 fusion protein (Homo sapiens, UniProt P62942)", "sequence (P62942 whole entry, the tested form may be a part)": "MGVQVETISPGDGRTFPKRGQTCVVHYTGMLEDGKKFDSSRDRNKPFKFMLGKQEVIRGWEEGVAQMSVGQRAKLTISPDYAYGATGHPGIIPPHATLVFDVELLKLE", "experiment": "Selectivity binding to arbitrarily selected protein: GST-FKBP12"}, "[4]": {"molecular_target": "maltose-binding protein-XIAP BIR3 domain fusion (MBP-BIR3) (Homo sapiens, UniProt P98170)", "sequence (P98170 241-356 limits assumed)": "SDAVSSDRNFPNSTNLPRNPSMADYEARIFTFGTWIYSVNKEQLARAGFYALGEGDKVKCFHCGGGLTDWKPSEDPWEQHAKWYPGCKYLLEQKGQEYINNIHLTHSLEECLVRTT", "experiment": "Selectivity binding to arbitrarily selected protein: MBP-BIR3"}, "[5]": {"molecular_target": "T2, GST-SHD SH2 domain fusion protein (Homo sapiens, UniProt Q96IW2)", "T2 sequence (Q96IW2 240-335 limits assumed)": "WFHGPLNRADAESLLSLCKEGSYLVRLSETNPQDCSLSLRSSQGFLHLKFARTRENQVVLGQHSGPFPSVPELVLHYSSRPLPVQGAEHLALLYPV", "experiment": "Selectivity binding to arbitrarily selected protein: GST-SHD SH2"}},
  "data": [
    {"substance": "Trp-phe-Asp-Lys-phe-asn-His-Dap [Peptide 38]", "values": [
      {"measurement": "Binding to PTP1B", "setting": "[1]", "value": "no binding"},
      {"measurement": "Fold higher KD for BSA than that of K-Ras", "setting": "[2]", "value": "47-120 fold"},
      {"measurement": "Binding to GST-FKBP12", "setting": "[3]", "value": "no binding"},
      {"measurement": "Fold higher KD for MBP-BIR3 than that of K-Ras", "setting": "[4]", "value": "47-120 fold"},
      {"measurement": "Fold higher KD for GST-SHD SH2 than that of K-Ras", "setting": "[5]", "value": "47-120 fold"}
    ]}
  ]
}
